From patent US7179446B2, “Simultaneous imaging of cardiac perfusion and a vitronectin receptor targeted imaging agent” (Bristol-Myers Squibb Pharma Company, priority 2000, dated 2007)

Test system: areas of endothelial damage, vulnerable plaque or angiogenesis in the heart
Assay: Simultaneous imaging of In-111 labeled vitronectin antagonist compound and Tc99m cardiac perfusion agent (Example 67)
Type: in vivo
Details: human, 10–40 mCi, approximately 0.5 to 6 hours following injection
Method: The compound of Examples 54, 55 or 56 is administered to a human at a level of ˜1–10 mCi of ^111In before, together with, or after the adminstration of a ^99mTc cardiac perfusion imaging agent (e.g. 10–40 mCi of ^99mTc-Sestamibi). […] The simultaneous imaging of the In-111 labeled vitronectin antagonist compound and the Tc99m cardiac perfusion agent is carried out by a method such as that reported by White (White, S A, Mueller, D H, Smith H E, et al. J Nucl Med Tech 1984, 12: 124–125) or Hillel (Hillel P G, Tindale W B, Taylor C J, et al. Nucl Med Conmun 1998, 19, 761–769).

Question: How did the “distribution of the ^99mTc perfusion agent” value turn out when `[C-]#[N+]CC(C)(C)OC.[C-]#[N+]CC(C)(C)OC.[C-]#[N+]CC(C)(C)OC.[C-]#[N+]CC(C)(C)OC.[C-]#[N+]CC(C)(C)OC.[C-]#[N+]CC(C)(C)OC.[Tc]` [^99mTc-Sestamibi, hexakis methoxyisobutyl isonitrile Technetium(I)] was run?
Answer: distributed in the myocardium in relation to regional myocardial blood flow
